{"source": "patent US20230384334A1", "about": "“METHOD FOR CALCULATING DRINKING TIME” (Shanxi Medical University, priority 2022, published 2023)", "settings": "in vivo", "method": "Approved by the Medical Ethics Committee of Shanxi Medical University (2018LL349), a total of 26 adults including 14 men and 12 women are recruited by the team to participate in the study.\nAll the blood samples were stored at −20 DEG C. until the end of the analysis.\n1 mL of blood and 1 mL of tert-butanol (IS, 87 mg/mL) were added to a headspace vial, diluted with 3 mL of ultrapure water, mixed in a sealed condition, and then analyzed by the headspace gas chromatography.\nMetabolites EtG and EtS in blood samples were measured by liquid chromatography-tandem quadrupole mass spectrometry (LC-MS/MS) with EtG-D5 and EtS-D5 as internal standards. […] Then 800 μL of 80% acetonitrile in methanol was added, and the mixture is precipitated at 0 DEG C. for 10min. After that, centrifugation was performed at 13000 rpm for 5 min, supernatant was taken out, and dried, by blowing, with nitrogen at 35 DEG C., and then re-dissolved with 400 μL of 5% acetonitrile in water and centrifuged again at 13000 rpm for 5 min.\nChromatograph separation was performed via an LC-20 A system. Conditions of the chromatograph were as follows:\nchromatographic column: Inertsil ODS-3 column (2.1 mm×100 mm, 3 μm; Shimadzu, Japan) , and column temperature: 35 DEG C.\nTargeted substances were tested by a tandom mass spectrometer (TRAP4,000, Sciex, AB). The specific conditions were as follows:\nIon source: electron spray ionization (ESI); voltage of ion spray: −4000 V, and temperature: 500 DEG C.; curtain gas, nebulizer (Gas 1), and heating auxiliary gas (Gas 2): 40 psi, 50 psi, and 35 psi respectively.\nScanning mode: anions+multiple reaction monitoring (MRM).\nThe pharmacokinetic parameters were calculated by a non-compartmental model using a DAS 3.0 software. All data was summarized using descriptive statistics. […] All statistical analyses were performed using version 13.0 of an IBM SPSS® software (SPSS Inc., Chicago, IL, USA).", "note": "Where two headings read alike, the source gives them in different places.", "data": [{"smiles": "CCO[C@@H]1O[C@H](C(=O)O)[C@@H](O)[C@H](O)[C@H]1O", "note": "[EtG, Ethyl glucuronide]", "values": [{"measurement": "AUC (0-t), area under the curve", "setting": "human, po", "result": "1990 ± 780", "unit": "ng·h/mL"}, {"measurement": "Cmax, peak concentration", "setting": "human, po", "result": "310 ± 110", "unit": "ng/mL"}, {"measurement": "Tmax, time to peak", "setting": "human, po", "result": "4.12 ± 1.07", "unit": "h"}, {"measurement": "t1/2z, half-life period", "setting": "human, po", "result": "2.56 ± 0.89", "unit": "h"}, {"measurement": "LOD (h) in human blood", "setting": "po", "result": "22.15 ± 4.42", "unit": "h"}]}, {"smiles": "CCOS(=O)(=O)O", "note": "[EtS, Ethyl sulphate]", "values": [{"measurement": "Cmax, peak concentration", "setting": "human, 0.72 g/kg", "result": 170, "unit": "ng/mL"}, {"measurement": "AUC (0-t), area under the curve", "setting": "human, po", "result": "1040 ± 340", "unit": "ng·h/mL"}, {"measurement": "Cmax, peak concentration", "setting": "human, po", "result": "170 ± 40", "unit": "ng/mL"}, {"measurement": "t1/2z, half-life period", "setting": "human, po", "result": "2.04 ± 0.76", "unit": "h"}, {"measurement": "LOD (h) in human blood", "setting": "po", "result": "16.92 ± 6.23", "unit": "h"}]}, {"smiles": "CCO", "note": "[alcohol, Alcohol]", "values": [{"measurement": "AUC (0-t), area under the curve", "setting": "human, po", "result": "1,715.23 ± 626.72 mg/L*"}, {"measurement": "Clz/F, clearance rate", "setting": "human, po", "result": "0.49 ± 0.33", "unit": "L/h"}, {"measurement": "Tmax, time to peak", "setting": "human, po", "result": "2.02 ± 0.54", "unit": "h"}, {"measurement": "Vz/F, apparent volume of distribution", "setting": "human, po", "result": "0.69 ± 0.49", "unit": "L/kg"}, {"measurement": "Detection window time (maximum observed value) in blood", "setting": "po", "result": "3 to 8", "unit": "h"}, {"measurement": "LOD (h) in human blood", "setting": "po", "result": "5.81 ± 1.74", "unit": "h"}]}]}
